# Results as given in US20100015126A1, “Methods of Binding of Cross-Beta Structures By Chaperones” (priority 2006, published 2010).
# Experiments:
# [1] = test system: freshly isolated human platelets; experiment: Crossbeta-induced human platelet aggregation (aggregometer); type: cell-based
# Protocol: Ex vivo Human Blood Platelet Aggregation Assay
# The influence of crossbeta structure binding chaperones on blood platelet aggregation induced by crossbeta structure or crossbeta structure comprising pathogens is tested with washed platelets or with platelet rich plasma in an aggregometric assay. Freshly drawn human aspirin free blood is mixed gently with citrate buffer to avoid coagulation. Blood is spinned for 15′ at 150*g at 20° C. and supernatant is collected; platelet rich plasma (PRP). Buffer with 2.5% trisodium citrate, 1.5% citric acid and 2% glucose, pH 6.5 is added to a final volume ratio of 1:10 (buffer-PRP). After spinning down the platelets upon centrifugation for 15′ at 330*g at 20° C., the pellet is resuspended in HEPES-Tyrode buffer pH 6.5. Prostacyclin is added to a final concentration of 10 ng/ml, and the solution is centrifuged for 15′ at 330*g at 20° C., with a soft brake. The pellet is resuspended in HEPES-Tyrode buffer pH 7.2 in a way that the final platelet number is adjusted to 200,000-250,000 platelets/μl. Platelets are kept at 37° C. for at least 30′, before use in the assays, to ensure that they are in the resting state. Platelets of approximately five donors are isolated separately.
# For the aggregometric assays, platelet solution is added to a glass tube and prewarmed to 37° C. A stirring magnet is added and rotation is set to 900 rpm, and the apparatus (Whole-blood aggregometer, Chrono-log, Havertown, Pa., USA) is blanked. A final volume of 1/10 of the volume of the platelet suspension is added, containing the agonist of interest and/or the premixed antagonist of interest, prediluted in HEPES-Tyrode buffer pH 7.2. Aggregation is followed in time by measuring the absorbance of the solution, that is decrease in time upon platelet aggregation. As a positive control, either 10 μg/ml collagen (Kollagenreagens Horm, NYCOMED Pharma GmbH, Linz, Austria; lot 502940), or 5 μM of synthetic thrombin receptor activating compound TRAP. In tests to analyse the effect of chaperones, 10-100 μg/ml glycated haemoglobin or 10-100 μg/ml amyloid-β is used to induce platelet aggregation. Aggregation is recorded for at least 15′.
# Platelet aggregation-studies with freshly isolated human platelets were performed as described above. For aggregation studies, platelets of four separate donors were used on subsequent days.
# HUVECs = experiment: FACS: binding of misfolded proteins and BiP to HUVECs; type: cell-based, human
# Protocol: For these experiments HUVECs were isolated by trypsinization. After trypsinization cells were collected in RPMI 1640, containing P/S and 10% FCS and centrifuged. After centrifugation cells were resuspended in RPMI medium without FCS at a concentration of 1.250.000 cells/250 μl. Individual 4-ml tubes (polypropylene, Greiner), containing 250 μl cell suspensions were made. To each tube 75 μl of a sample, containing either, • a. buffer (PBS) only, or • b. 25 μl PBS+50 μl BiP (1.16 mg/ml), or • c. 50 μl buffer with 25 μl oxLDL (1 mg/ml), or • d. 74 μl buffer with 1 μl BSA-AGE (25 mg/ml), or • e. 24 μl PBS+1 μl BSA-AGE (25 mg/ml)+50 μl BiP (1.16 mg/ml), or • f. 25 μl oxLDL (1 mg/ml)+50 μl BiP (1.16 mg/ml), • g. 1.6 μl dIgIV-65 (20 mg/ml)+73.4 μl PBS • h. […]
# was added. Subsequently, the cells were incubated with the sample for approximately 30 minutes at 4° C. Next, cells were pelleted by centrifugation and the supernatant was discarded. Cells were washed subsequently with FACS buffer (PBS/0.5% BSA/0.05% m/v NaN3) at 4° C. and resuspended in FACS-buffer at approximately 1*10^5 cells/100 μl for subsequent analysis. Cell death was determined by adding 3 μl 7-aminoactinomycin D (7AAD) solution (prepared according to standard procedures). Binding of sample BSA-AGE (see elsewhere in this application for preparation details) was determined with anti-AGE monoclonal antibody 4B5 (10 μg/ml) and, after washing, with goat anti-mouse PE secondary antibodies (Jackson Immunoresearch, West Grove, USA). Binding of BSA-AGE was also assessed using the intrinsic fluorescence of BSA-AGE in the PE channel. Binding of oxidized LDL (oxLDL, oxidized for 56% following incubation with FeSO4; specific enhancement of Thioflavin T fluorescence) was determined with rabbit serum with anti-ApoB100 polyclonal antibodies at a concentration of 160 μg/ml and, after washing the cells, with FITC-labelled goat anti-rabbit antibodies (1:200, Jackson). Binding of dIgIV-65 was assessed by using anti-Human IgG antibody. BiP binding was determined using the earlier mentioned anti-FLAG antibody (M2, Sigma-Aldrich).
# [2] = test system: human monocyte-derived dendritic cells; experiment: FACS: binding of misfolded proteins and BiP to human monocyte-derived dendritic cells; type: cell-based
# Excerpt: In vitro generation of peripheral blood human monocyte-derived dendritic cells, and analyses for binding of misfolded proteins and BiP
# Human DCs are generated from non-proliferating precursors selected from peripheral blood mononuclear cells (PBMCs), essentially by published methods (Sallustro and Lanzavecchia [1994], J. Exp. Med. 179 1109-1118). Relative abundant presence of CD1a, CD32, CD36, CD40, CD54, CD86, HLA-DR and CD206 and relative low content of CD14 positive, CD16 positive, CD64 positive, CD80 positive, CD83 positive and CD163 positive cells serve as a quality measure for the immature DCs. After obtaining the immature DCs upon stimulation with GM-CSF and IL-4, direct binding of misfolded proteins and BiP to the DCs is assessed by incubating 200.000 cells (2*10^6 cells/ml) for 30 minutes at 4° C. under metabolic arrested state, with 1) PBS, 2) 58 μg/ml BiP (830 nM), 4) 250 μg/ml BSA-AGE (3.6 μM), 5) BSA-AGE+BiP, 6) 250 μg/ml oxLDL, 7) oxLDL+BiP, 8) mixture of BiP-binding peptides 6BB8-11, 13 (see Table 5), 125 μg/ml+BiP, and 8) 62.5 μg/ml Aβ16-22, 62.5 μg/ml Aβ25-35+BiP. After the incubation and careful washing of the cells, binding of BiP, BSA-AGE and oxLDL is assessed with FACS, using primary antibodies monoclonal anti-FLAG antibody, monoclonal anti-glycated human fibronectin antibody 4B5 and rabbit serum with anti-human apoliprotein B-100 antibody (Dade Behring, Newark, Del., USA), and the appropriate FITC- or PE-labeled secondary antibody. Mean fluorescence intensity (MFI) ratio's are determined by measuring background fluorescence.
# [3] = test system: freshly isolated human platelets; experiment: Crossbeta-induced human platelet aggregation (aggregometer); type: cell-based; settings: 8 μM TRAP
substance,measurement,setting,value
"BiP: Recombinant human HSP70 family chaperone BiP with C-terminal linker, FLAG-tag and His-tag, expressed in HEK 293E cells","Platelet aggregation by protein alone, without activator",[1],did not induce platelet aggregation
same,Misfolded protein induced platelet aggregation,"[1]; activators Aβ42t=0, HbAGE, BSA-AGE, four donors",potently inhibited
same,Platelet aggregation induced by amyloid-β1-42,[1]; donor a,strongly inhibited
same,Platelet aggregation induced by crossbeta BSA-AGE,[1]; donor a,strongly inhibited
same,Platelet aggregation induced by Aβ1-42,"[1]; donor b, Aβ42t=0 26.7 μg/ml",inhibited
same,Platelet aggregation induced by crossbeta BSA-AGE,"[1]; donor b, BSA-AGE 33.3 μg/ml",strongly inhibited
same,Aβ42 induced platelet activation,[1]; donor c,abolish
same,BSA-AGE induced platelet aggregation,[1]; donor c,inhibit
same,HbAGE induced platelet aggregation,[1]; donor c,inhibited
same,HbAGE induced platelet aggregation,"[1]; donor d, BiP 58 μg/ml, sRAGE 37.4 μg/ml, HbAGE 80 μg/ml",inhibits
same,Binding of BiP to HUVECs (MFI ratio),HUVECs; BiP alone,1.4
same,Binding of BiP to ECs,HUVECs; co-incubated with dIgIV-86,neither BiP did bind
same,Binding of BiP to DCs (MFI ratio),"[2]; BiP alone, 58 μg/ml, 30 minutes at 4° C.",1.4
same,"Binding to DCs (MFI ratio), BiP","[2]; FACS, human dendritic cells, detection of BiP, signal divided by background signal",1.4
same,TRAP-induced platelet aggregation,[3],unaffected
